Experiment [1] relates to a-toxin binding to the receptor, extracted membranes. The experiment can be described thus: Inhibition of a-toxin labeling of membranes. Also on record: species or system Torpedo californica. The conditions noted are these: 10 mM carbamylcholine added to the solutions of the toxin; Fig. 6H.
The test system of a further experiment is mab 264E / AChR. The experiment can be described thus: Inhibition of binding of mab 264E to AChR by peptides. Further details: species or system Torpedo nobiliana. The settings on record: ELISA; tested at concentrations exceeding 36 uM.
In a further experiment the test system is mab 274D / AChR. The experiment can be described thus: Inhibition of binding of mab 274D to AChR by peptides. Also on record: species or system Torpedo nobiliana. The settings on record: ELISA; tested at concentrations exceeding 36 uM.

In the case of `C[N+](C)(C)CCOC(N)=O.[Cl-]` [carbamylcholine], the “labeling of a-toxin sites in presence of competitor” value in experiment [1] is “substantially reduced the labeling”. In the case of “Ac-PFEGDPFDYSSDHPRG-OH [Delta-peptide 485-499]”, in the experiment with mab 264E / AChR, the “inhibition of binding of mab 264E to AChR” value is “failed to inhibit the binding of either mab”. Besides, in the experiment with mab 274D / AChR, the “inhibition of binding of mab 274D to AChR” value is listed as “failed to inhibit the binding of either mab”.

These data come from paper PMC2113498 (The Journal of Cell Biology, 1985).
